Test results: US10793599B2, “MPHOSPH1-derived peptide, and vaccine including same” (OncoTherapy Science, Inc., priority 2015, dated 2020)
Entries after “also recorded” stand apart in the source; their conditions may differ.

What was measured:
peptide-pulsed C1R-A33 [1] = test: In vitro CTL induction, IFN-gamma ELISPOT assay (HLA-A*33:03); format: cell-based, human; conditions: CD8 positive T cells of HLA-A*33:03-positive donors after three stimulations with peptide-pulsed DCs; against peptide-pulsed C1R-A33; listed as MPHOSPH1-A33-9-608
Protocol: Monocyte-derived dendritic cells (DCs) were used as the antigen-presenting cell to induce a specific cytotoxic T lymphocyte (CTL) response against peptides presented on human leukocyte antigens (HLAs). As already reported in literatures, DCs were generated in vitro (Nakahara S et al., Cancer Res 2003, 63(14): 4112-8). Specifically, peripheral-blood mononuclear cells (PBMCs) collected from healthy volunteers (HLA-A*33:03-positive) with the Ficoll-Paque plus solution (Pharmacia) were seeded in plastic tissue culture dishes (Corning) to let the monocytes in the PBMCs adhere to the dishes. This was cultured in the presence of 1000 IU/ml granulocyte macrophage colony-stimulating factor (R&D System) and 1000 IU/ml interleukin (IL)-4 (R&D System) for seven days. An AIM-V medium (Invitrogen) containing 5% inactivated AB-type serum (ABS) was used as the medium. DCs that were induced to differentiate from monocytes using the cytokines were pulsed with 20 micro-g/ml of each synthesized peptide (37 degrees C., three hours). Peptide pulsing was carried out in an AIM-V medium containing 3 micro-g/ml beta 2-microglobulin. These peptide-pulsed DCs were inactivated by X-ray irradiation (20 Gy), mixed in a 1:20 ratio with autologous CD8 positive T cells obtained by positive selection using the CD8 Positive Isolation Kit (Invitrogen) (1.5×10^4 DCs and 3×10^5 CD8 positive T cells), and cultured in a 48-well plate (Corning). Each well contained 0.5 ml of the 5% ABS/AIM-V medium, and IL-7 (R&D System) was added there (final concentration: 10 ng/ml). Two days after the start of the culture, IL-2 (Novartis) was added (final concentration: 20 IU/ml). On day 7 and day 14 of culture, the CD8 positive T cells were further stimulated with peptide-pulsed DCs. The DCs were prepared at the time of use by the same method as above. After day 21 (after three DC stimulations), IFN-gamma production against the peptide-pulsed C1R-A33 was confirmed using human interferon (IFN)-gamma enzyme-linked immunospot (ELISPOT) assay (Tanaka H et al., Br J Cancer 2001, 84(1): 94-9; Umano Y et al., Br J Cancer 2001, 84(8): 1052-7: Uchida N et al., Clin Cancer Res 2004, 10(24): 8577-86; Suda T et al., Cancer Sci 2006, 97(5): 411-9; Watanabe T et al., Cancer Sci 2005, 96(8): 498-506).
(§1) Peptide-pulsed C1R-A33 (1×10^4 cells/well) was prepared as the target cell. The IFN-gamma ELISPOT assay and IFN-gamma ELISA assay were performed according to the assay kit manufacturer's manual.

peptide-pulsed C1R-A33 [2] = test: IFN-gamma ELISA of CTL lines and CTL clones (HLA-A*33:03); format: cell-based, human; conditions: listed as MPHOSPH1-A33-9-608
Protocol: CTLs were propagated using methods similar to those reported by Riddell et al. (Walter E A et al., N Engl J Med 1995, 333(16): 1038-44; Riddell S R et al., Nat Med 1996, 2(2): 216-23). The CTLs were cultured in 25 ml 5% ABS/AIM-V medium together with two types of Mitomycin C-treated human B lymphoblastoid cell lines (5×10^6 cells/25 ml medium each) and an anti-CD3 antibody (final concentration: 40 ng/ml). On the day after beginning of the culturing, IL-2 (final concentration: 120 IU/ml) was added to the culture. On days 5, 8 and 11, the medium was changed to a 5% ABS/AIM-V medium containing IL-2 (final concentration: 30 IU/ml) (Tanaka H et al., Br J Cancer 2001, 84(1): 94-9; Umano Y et al., Br J Cancer 2001, 84(8): 1052-7; Uchida N et al., Clin Cancer Res 2004, 10(24): 8577-86; Suda T et al., Cancer Sci 2006, 97(5): 411-9; Watanabe T et al., Cancer Sci 2005, 96(8): 498-506).
After induction of CTLs in vitro, the CTLs were seeded onto 96 round-bottomed microtiter plates (Nalge Nunc International) at 1 cell/well or 10 cells/well. The CTLs were cultured with two types of Mitomycin C-treated human B lymphoblastoid cell lines (1×10^4 cells/well each) in a total of 150 micro-l/well 5% ABS/AIM-V medium with an anti-CD3 antibody (final concentration: 30 ng/ml) and IL-2 (final concentration: 125 IU/ml). Ten days later, 50 micro-l 5% ABS/AIM-V medium containing 500 IU/ml IL-2 was added to the culture.
as §1

[3] = tested on: COS7 cells expressing MPHOSPH1 and HLA-A*33:03; test: IFN-gamma production of CTL clone against target cells expressing MPHOSPH1 and HLA-A*33:03; format: cell-based, African green monkey
Protocol: as §1
A cDNA encoding the MPHOSPH1 or HLA-A*33:03 gene was amplified by PCR. The PCR-amplified product was each incorporated into an expression vector. Either or both of the MPHOSPH1 gene-expressing vector and the HLA-A*33:03 gene-expressing vector were introduced into COS7, which is a cell line negative for HLA, using Lipofectamine 2000 (Invitrogen). On the day after gene introduction, COS7 cells were detached and harvested using versene (Invitrogen), and used as the target cell for confirmation of IFN-gamma production (5×10^4 cells/well).

Sequence: EFTQYWAQR (a peptide derived from MPHOSPH1) [SEQ ID NO: 118]
- peptide-specific IFN-gamma production (ELISPOT) (peptide-pulsed C1R-A33 [1]): Peptide-specific IFN-gamma production was observed
- peptide-specific IFN-gamma production of CTL clone (ELISA) (peptide-pulsed C1R-A33 [2]; CTL clone by limiting dilution, against C1R-A33 pulsed with the peptide): showed a peptide-specific IFN-gamma production
- IFN-gamma production by CTL line (ELISA) (peptide-pulsed C1R-A33 [2]; CTL line against C1R-A33 pulsed with the peptide): CTL lines that produce IFN-gamma in a peptide-specific manner were established; also recorded: observed
- IFN-gamma production of peptide-specific CTL clone ([3]; against COS7 cells expressing both MPHOSPH1 and HLA-A*33:03): showed IFN-gamma production
- IFN-gamma production of peptide-specific CTL clone ([3]; against negative control COS7 cells expressing either one of MPHOSPH1 and HLA-A*33:03, listed as MPHOSPH1-A33-9-608): a significant IFN-gamma production was not shown; also recorded: a significant IFN-gamma production was not observed
